This is an account of results in patent US7547752B2, “Scalp treatment” (Unilever Home & Personal Care USA division of Conopco, Inc., priority 2002, dated 2009).

The test system of this assay is scalp itch in panellists with self-perceived dandruff. The assay can be described thus: Clinical anti-itch study: CLA lotion or lotion base applied before AD or NAD shampoo wash, investigator-scored itch degree. The class given is in vivo, human. The conditions noted are these: lotion applied one hour before hair wash, shampoo 3 times a week, weekly assessment, FIG. 1. From the text: The effect of conjugated linoleic acid, used in conjunction with anti-dandruff (AD) and non anti-dandruff (NAD) shampoo, was clinically assessed using the following protocol.
The conjugated linoleic acid is used as a lotion (composition B). The lotion base comprises Tween™ 20, Carbopol™ 980, Sodium Hydroxide, Natrosol™ 250HHR, EDTA-2Na, glydant plus and water (composition A). The use of the lotion is followed by a shampoo wash with an NAD shampoo (composition C) or an AD shampoo (composition D).
A randomised monadic double blind study design was used based on a total of 240 screened panellists, male and female, with self-perceived dandruff. All 240 panellists used a placebo shampoo (composition C) in their normal hair wash routine for 4 successive weeks.
The panellists were divided into four groups (total number of panellists=240):
Group 1: 60 panellists. All panellists wash their hair with NAD shampoo at home 3 times a week and apply CLA lotion one hour prior to washing their hair.
Group 2: 60 panellists. All panellists wash their hair with NAD shampoo at home 3 times a week and apply lotion base (composition A) one hour prior to washing their hair.
Group 3: 60 panellists. All panellists wash their hair with AD shampoo at home 3 times a week and apply CLA lotion one hour prior to washing their hair.
Group 4: 60 panellists. […]

As for Conjugated linoleic acid [CLA], the “degree of itch of the scalp (itch degree, standard scale 0-4)” value is “can increase the degree of scalp itch”.
